Assay results: patent US20240425454A1, “IONIZABLE CATIONIC COMPOUND” (SEQIRUS INC., priority 2021, published 2024)

Test: TNS fluorescence pKa protocol on saRNA-LNP
Assay type: physicochemical
Details: saRNA-LNP containing the lipid, in a series of buffers; saRNA-LNP with the lipid; TNS 6 μM, pH 4 to 9.5, 25° C.; read-out: Apparent pKa
Method: In a black 96-well plate, solutions of saRNA-LNP (final assay concentration 2 μg/mL total RNA) in a series of buffers ranging from pH 4 to 9.5 were prepared. Buffers between pH 4 to 7.6 were prepared from disodium phosphate and citric acid. Buffers from 7.8 to 9.5 were prepared by titrating tris buffer with 10 N sodium hydroxide. To each well was added 6-(p-Toluidino)-2-naphthalenesulfonic acid sodium salt (TNS) in water to a final assay concentration of 6 μM. The fluorescence was read on a plate reader at 25° C. with an excitation setting of 321 nm and an emission setting of 445 nm. The intensity values were plotted as a function of pH using GraphPad Prism and were fit with a sigmoidal dose response curve. The apparent pKa was determined as the EC50 of this curve where half of the ionizable amines are expected to be protonated (see FIG. 1).

SMILES: CCCCC(CCCC)OC(=O)CCCCCCCCC(CCCCCCCCC(=O)OC(CCCC)CCCC)OC(=O)COC1CCN(C)CC1 [SL06]
- pKa: 7.1

SMILES: CCCCC(CCCC)OC(=O)CCCCCCCCC(CCCCCCCCC(=O)OC(CCCC)CCCC)OC(=O)CSC1CCN(C)CC1 [SL07]
- pKa: 6.1

SMILES: CCCCC(CCCC)OC(=O)CCCCCCCCC(CCCCCCCCC(=O)OC(CCCC)CCCC)OC(=O)COCCN(C)C [SL08]
- pKa: 7

SMILES: CCCCC(CCCC)OC(=O)CCCCCCCCC(CCCCCCCCC(=O)OC(CCCC)CCCC)OC(=O)COCCCN(C)C [SL09]
- pKa: 7.1

SMILES: CCCCC(CCCC)OC(=O)CCCCCCCCC(CCCCCCCCC(=O)OC(CCCC)CCCC)OC(=O)CSCCN(C)C [SL10]
- pKa: 5.8

SMILES: CCCCC(CCCC)OC(=O)CCCCCCCCC(CCCCCCCCC(=O)OC(CCCC)CCCC)OC(=O)CSCCN(CC)CC [SL11]
- pKa: 5.6

SMILES: CCCCC(CCCC)OC(=O)CCCCCCCCC(CCCCCCCCC(=O)OC(CCCC)CCCC)OC(=O)COC1CCN(CCCO)CC1 [SL12]
- pKa: 6.9
